Read-outs that look alike come from different tables or passages of the source. One block for each compound: values may come before it.
Experiments:
[1] = Water content after storing in relative humidity of 92% at 25° C.; assay type: physicochemical; settings: 92% relative humidity, Mod. III depending on particle size
Procedure: Relevant data of the two most important crystal forms (modification I and III) of torasemide are summarized in Table 1. | Water content (%) after storing in relative 0.2 1.2 (depending | humidity of 92% at 25° C. on particle size

[2] = Heat of fusion / heat of transition (DSC); assay type: physicochemical; settings: for Heat of fusion ± 95% - C.B.: heating rate 5K min^-1
Heat of solution = assay type: physicochemical; settings: in I-butanol at 20° C.
Procedure: Relevant data of the two most important crystal forms (modification I and III) of torasemide are summarized in Table 1. | Heat of solution (kJ mol^-1) in I-butanol at 20° C. 36.1

True density = assay type: physicochemical
Procedure: One aspect of the present invention involves pure torasemide of modification III. It is believed that pure torasemide of modification III was previously unknown to the art. Torasemide of modification III can be characterized by a melting point of 155 to 158° C. (thermomicroscopy) and a true density of 1.302±0.009 g cm^-3 (versus 1.363±0.001 g cm^3 for modification I). In a preferred embodiment, the torasemide of modification III is pure. This term "pure" means that the torasemide contains less than about 1% of modification I and/or II, and less in any event than amounts of modification I which adversely effect the stability of modification III.
True density (g cm^-3) ± 95% - c.i.

[3] = Serum concentration of torasemide in rats after oral administration; assay type: in vivo, Wistar rat; settings: male rats (FIG. 1); for Serum concentration compared with modification I: oral 3 mg per kilogram
Procedure: FIG. 1 is a plot of serum concentration levels in male rats of torasemide of modification I and modification III versus time after oral administration; and FIG. 2 is similar to FIG. 1, but reflects the serum concentrations in female rats. […] Therefore, both genders were tested to determine the concentration of torasemide in serum against the time after administration. The dose of torasemide was 3 mg per kilogram, administered orally. FIG. 1 is a graph illustrating the concentration in the serum of male rats of torasemide, as a result of administering modification I and modification III. FIG. 2 is a representation of the concentration of torasemide versus time after administration for the serum of female rats, treated the same as the male rats of FIG. 1.

[4] = Storage stability of the crystal modification; assay type: physicochemical; settings: storage stable: tablet form, ambient conditions, less than 5% changing into another crystalline form over six months
Diuretic effect = settings: in vivo
[5] = literature (Acta Cryst. 1978), cited from earlier work
[6] = prior art (U.S. Re 34,672 and 34,580); listed as modification I; cited from earlier work
[7] = in vivo; cited from earlier work
[8] = system: sodium-potassium-2 chloride transport mechanism in the ascending limb of the loop of Henle; settings: cited from earlier work
[9] = male versus female Wistar rats; P-450 oxidation products; cited from earlier work

Water content after storing in relative humidity of 92% at 25° C. ([1]; listed as Mod. III): 1.2% | Heat of transition ± 95% - C.B. ([2]; at about 159° C., the difference of the heats of fusion, ± 2.1 printed on next line): -19.6 kcal/mol | Heat of fusion ± 95% - C.B. ([2]; listed as Mod. III): 7.15 ± 0.22 kcal/mol | Heat of solution (Heat of solution; listed as Mod. III): 7.12 kcal/mol | True density ± 95% - c.i. (True density; listed as Mod. III): 1.302 ± 0.009 g cm^-3 | True density ± 95% - c.i. (True density; listed as modification III): 1.302±0.009 g cm^-3 | Appearance in the serum after oral administration ([3]; oral): rapid appearance | Stability of the crystal modification [4]: storage stable
Compound: Cc1cccc(Nc2ccncc2S(=O)(=O)NC(=O)NC(C)C)c1 [Modification III]
Serum concentration compared with modification I ([3]; 20 minutes after administration): more than twice the serum concentration as modification I | Serum concentration compared with modification I ([3]; 40 minutes after administration): almost twice the serum concentration as modification I | Diuretic effect (Diuretic effect): effective diuretic

Water content after storing in relative humidity of 92% at 25° C. ([1]; listed as Mod. I): 0.2% | Heat of fusion ± 95% - C.B. [2]: 8.89 ± 0.454 kcal/mol | Heat of solution (Heat of solution): 8.63 kcal/mol | True density ± 95% - c.i. (True density; listed as Mod. I): 1.363 ± 0.001 g cm^-3
Compound: Cc1cccc(Nc2ccncc2S(=O)(=O)NC(=O)NC(C)C)c1 [Modification I]
True density [5]: about 1.36 | Stability / rearrangement in tablets or on storage [6]: stable in tablets and did not rearrange again back into modification II

Compound: Cc1cccc(Nc2ccncc2S(=O)(=O)NC(=O)NC(C)C)c1 [Torasemide, 1-isopropyl-3-[(4-m-toluidino-3pyridyl)sulphonyl)urea]
Diuresis profile compared with other standard loop diuretics [7]: less intense initial diuresis and a sustained duration of action | Mechanism of action [8]: blocks the sodium-potassium-2 chloride transport mechanism in the ascending limb of the loop of Henle | Difference between male and female rats in excretion rate and metabolism [9]: significant differences

Compound: Cc1cccc(Nc2ccncc2S(=O)(=O)NC(=O)NC(C)C)c1 [Modification II]
True density ([5]; in g/cm3 (unit assumed)): 1.285

Source: patent US6166045A, “Torasemide of modification III” (Roche Diagnostics GmbH, priority 1998, dated 2000)
